{"source": "patent US20130217871A1", "about": "“CONJUGATES COMPRISING HYDROXYALKYL STARCH AND A CYTOTOXIC AGENT AND PROCESS FOR THEIR PREPARATION” (priority 2010, published 2013)", "key": {"[1]": {"system": "human large cell lung carcinoma LXFL-529", "assay": "Tumor growth inhibition, s.c. LXFL-529 xenograft in nude mice", "assay_type": "in vivo, NMRI nu/nu mice", "settings": "Table 14; for Tumor volume mm^3 (d 14): day 14; for RTV T/C optimum [%]: optimum day in cell", "from_the_text": "Mouse strain: NMRI nu/nu, female Animals supplied by: Charles River, Germany Age of mice at implantation: 5-7 weeks\nThe tumor xenografts LXFL-529 (Fiebig H H, Berger D P, Dengler W A, Wallbrecher E, Winterhalter B R: Combined In Vitro/In Vivo Test Procedure with Human Tumor Xenografts for New Drug Development. Contrib. Oncol., Basel, Karger, 1992, Vol. 42, pp 321-351) used in this study were derived from surgical specimen from patients treated at the University Hospital in Freiburg, Germany, and directly implanted into nude mice. Prior to surgery, most of the patients had not received any chemotherapy.\nTumor fragments were obtained from xenografts in serial passage in nude mice. After removal from donor mice, tumors were cut into fragments (4-5 mm diameter) and placed in PBS until subcutaneous implantation. Recipient mice were anaesthetized by inhalation of isoflurane. A small incision was made in the back and one tumor fragment per animal was transplanted with tweezers. The mice were monitored daily.\nAt randomization, tumor-bearing animals were stratified according to tumor volume into treatment and vehicle (control) groups. Only animals carrying one tumor of appropriate size (approximately 50-250 mm^3) were considered for randomization. Mice were randomized when the required number of mice qualified for randomization. The day of randomization was designated as day 0, which was also the first day of dosing.\n(§1) All test items were formulated in 0.9% NaCl solution and given as i.v. bolus injection despite everolimus, which was given per oral.\n(§2) Measurement of tumor volume and body weight as well as calculations of relative tumor volumes were carries out analogue to the procedure described in 1.3."}, "[2]": {"assay": "Toxicity in LXFL-529 tumor-bearing nude mice (mortality, body weight change)", "assay_type": "in vivo", "settings": "Table 14; days 0, 3, 7, 10 (20 mg/kg); 5 mice; at day 13", "procedure": "All experiments were conducted according to the guidelines of the German Animal Welfare Act (Tierschutzgesetz). Animal health was examined prior to tumor implantation and randomization to ensure that only animals without any symptoms of disease were selected to enter testing procedures. During the experiments, animals were monitored daily regarding tumor burden, general condition, feed and water supply.\nas §1, §2"}, "[3]": {"system": "human pancreas carcinoma ASPC-1", "assay": "Tumor growth inhibition, s.c. ASPC-1 xenograft in nude mice", "assay_type": "in vivo, NMRI:nu/nu mice", "settings": "60 mg/kg/inj. i.v.", "from_the_text": "The human pancreas carcinoma ASPC-1 was used as s.c. xenotransplantation model in immunodeficient female NMRI:nu/nu mice.\nThe cells were obtained from ATCC and are cryo-preserved within the EPO tumor bank. They were thawed, expanded in vitro and transplanted as cell suspension subcutaneously (s.c.) in female NMRI:nu/nu mice. The tumor line ASPC-1 is used for testing new anticancer drugs or novel therapeutic strategies. It was therefore selected for this study.\nFor experimental use 10^7 tumor cells/mouse from the in vitro passage were transplanted s.c. into the flank of each of 10 mice/group at day 0.\n(§3) At palpable tumor size (30-100 mm^3) treatment started. The application volume was 0.2 ml/20 g mouse body weight. The test compounds, the vehicle controls and the reference compounds were all given intravenously (i.v.).\n(§4) Tumor growth inhibition was used as therapeutic parameter. Additionally, body weight change was determined as signs for toxicity (particularly, potential hematological or gastrointestinal side effects).\nTumor diameters were measured twice weekly with a caliper. Tumor volumes were calculated according to V=(length x (width)^2)/2. For calculation of the relative tumor volume (RTV) the tumor volumes at each measurement day were related to the day of first treatment. At each measurement day the median and mean tumor volumes per group and also the treated to control (T/C) values in percent were calculated (Tables 11-13).\nDescriptive statistics were performed on the data of body weight and tumor volume. […] Statistical evaluation was performed with the U-test of Mann and Whitney with a significance level of p≦0.05, using the Windows program […] 6.\nAll Gemcitabine-conjugates were stored in a freeze-dried form at −20° C. until use. Solutions were prepared immediately before injection by solving the conjugates in saline solution by vortexing in combination with centrifugation until a clear solution of the necessary concentration of the drug was obtained.\nGemcitabine (Gemzar®, charge A4781790 200 mg) was obtained from Lilly Deutschland GmbH and was stored in the dark at −20° C. until use. The final solution of Gemzar® was prepared immediately before injection by mixing the appropriate volume of the original stock solution (200 mg) with saline (0.9%, infusion solution, Ch.-Nr 0205A231, B. Braun Melsungen AG, Germany)."}, "[4]": {"assay": "Toxicity in ASPC-1 tumor-bearing nude mice (body weight change, toxic death, blood counts)", "assay_type": "in vivo, NMRI:nu/nu mice", "procedure": "as §3, §4\nIndividual body weights of mice were determined twice weekly and mean body weight per group was related to the initial value in percent (body weight change, BWC).\nOn the day of necropsy mice were sacrificed by cervical dislocation and inspected for gross organ changes."}, "[5]": {"settings": "days 0, 3, 7, 10 (20 mg/kg) i.v."}, "[6]": {"settings": "days 0, 3 (10 mg/kg), 7, 10, 14 (15 mg/kg) p.o."}, "[7]": {"settings": "Table 13, days 7, 14, 21, day 27"}}, "note": "Marks after values point to notes of the source that are not given here."}
{"smiles": "CO[C@H]1C[C@@H]2CC[C@@H](C)[C@@](O)(O2)C(=O)C(=O)N2CCCC[C@H]2C(=O)O[C@H]([C@H](C)C[C@@H]2CC[C@@H](OC(=O)C(C)(CO)CO)[C@H](OC)C2)CC(=O)[C@H](C)/C=C(\\C)[C@@H](O)[C@@H](OC)C(=O)[C@H](C)C[C@H](C)/C=C/C=C/C=C/1C", "note": "[Temsirolimus]", "values": [{"measurement": "Tumor volume mm^3 (d 14)", "setting": "[1]; [5]", "result": 1073.7, "unit": "mm^3"}, {"measurement": "RTV T/C optimum [%]", "setting": "[1]; [5]", "result": "57.1 (d 10) %"}, {"measurement": "Mortality (at day)", "setting": "[2]", "result": "1 (13)"}]}
{"smiles": "CO[C@H]1C[C@@H]2CC[C@@H](C)[C@@](O)(O2)C(=O)C(=O)N2CCCC[C@H]2C(=O)O[C@H]([C@H](C)C[C@@H]2CC[C@@H](OCCO)[C@H](OC)C2)CC(=O)[C@H](C)/C=C(\\C)[C@@H](O)[C@@H](OC)C(=O)[C@H](C)C[C@H](C)/C=C/C=C/C=C/1C", "note": "[Everolimus]", "values": [{"measurement": "Tumor volume mm^3 (d 14)", "setting": "[1]; [6]", "result": 926.1, "unit": "mm^3"}, {"measurement": "RTV T/C optimum [%]", "setting": "[1]; [6]", "result": "53.9 (d 14) %"}]}
{"smiles": "Nc1ccn([C@@H]2O[C@H](CO)[C@@H](O)C2(F)F)c(=O)n1", "note": "[Gemcitabine]", "values": [{"measurement": "RTV T/C (%) Optimum (at day)", "setting": "[3]; Table 11, 9 injections, optimum at day 36", "result": 41.4, "unit": "%"}, {"measurement": "Tumor volume cm^3/d 44", "setting": "[3]; Table 11, days 9, 13, 16, 20, 23, 27, 30, 34, 40, day 44", "result": "0.272 +/− 0.119* cm^3"}, {"measurement": "Tumor volume cm^3/d 28", "setting": "[3]; Table 12, day 28", "result": "0.159 +/− 0.058* cm^3"}, {"measurement": "RTV T/C (%) Optimum (at day)", "setting": "[3]; Table 12, optimum at day 28", "result": 23.6, "unit": "%"}, {"measurement": "RTV T/C (%) d 27", "setting": "[3]; [7]", "result": 55.1, "unit": "%"}, {"measurement": "Tumor volume cm^3/d 27", "setting": "[3]; [7]", "result": "0.480 +/− 0.317 cm^3"}, {"measurement": "Platelets × 10^6/ml (at day 13)", "setting": "[4]; Table 11, 60 mg/kg/inj. i.v., day 13", "result": "915 +/− 105* × 10^6/ml"}, {"measurement": "WBC × 10^6/ml (at day 13)", "setting": "[4]; Table 11, white blood cell count, 60 mg/kg/inj. i.v., day 13", "result": "5.22 +/− 1.47* × 10^6/ml"}, {"measurement": "Toxic death (at day)", "setting": "[4]; Table 12, 60 mg/kg/inj. i.v., 8 treatments, 8 mice, deaths at d 15, d 18", "result": 2}, {"measurement": "BWC [%] (at day)", "setting": "[4]; Table 12, body weight change, 60 mg/kg/inj. i.v., at day 17", "result": "−15", "unit": "%"}, {"measurement": "BWC [%] (at day)", "setting": "[4]; mouse, in vivo, iv, 60 mg/kg", "result": "−2.4 (9) %"}]}
